One experiment deals with curli (Escherichia coli, UniProt P28307). As to the kind of experiment: Inhibition of curli assembly (FIG. 4). Conditions: in the presence of compound. Type of experiment: biochemical. From the text: DAPH-12 (top) blocks tyrosine stacking, while Amphotericin B (bottom) binds to the edge strands and prevents amyloid assembly.
The target of the next experiment is CsgA (Escherichia coli, UniProt P28307). To be noted: peptides immobilized on glass slide; recombinant CsgA ~2 μm, about 10% labeled with ALEXA-647; stringent wash.
Chain of CsgA (P28307 21-151): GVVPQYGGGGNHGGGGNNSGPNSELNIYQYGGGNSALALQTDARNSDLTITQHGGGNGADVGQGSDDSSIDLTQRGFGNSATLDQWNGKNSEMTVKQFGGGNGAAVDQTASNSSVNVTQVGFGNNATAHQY

Chain of curli (P28307 21-151): as above
Description for CsgA: Peptide array synthesis, hybridization and quantification. […] Each peptide spot (250 μM in diameter) is printed with 3 drops of 0.5 nL of peptide solution at a concentration of approximately 2.5 μM using non-contact printing (JPT Peptide Technologies GmbH). The unreacted peptides are removed from the hydrogel slides, dried and then the slides are blocked with 3% BSA in PBST for 1 hr. CsgA proteins are denatured in 6 M GuHCl at 100° C. for approximately 20 minutes, diluted 125 times in PBST containing 3% BSA to a final concentration of 1-5 μM and a label ratio of 5-75%. A single peptide array is incubated with approximately 2-3 mL of diluted CsgA using an ATLAS™ hybridization chamber (BD Biociences) without mixing for a given period of time. The peptide arrays are then washed 5 times with 50 mL of 2% SDS for 30 minutes, 5 times with 50 mL of water, 3 times with 50 mL of methanol and then spun dry. […] The arrays are imaged using a GENEPIX® 4000A scanner and the median values for the peptide spots of two to three replicates are quantified using GENEPIX® Pro 6.0 software (Molecular Devices).
Denatured peptides were arrayed on reactive glass slides and their interaction with soluble, fluorescently labeled CsgA was studied.
A peptide library of CsgB sequences was generated and immobilized on a glass slide essentially as described above. […]

In the case of `C[C@@H]1[C@H](O)[C@@H](C)/C=C/C=C/C=C/C=C/C=C/C=C/C=C/[C@H](O[C@@H]2O[C@H](C)[C@@H](O)[C@H](N)[C@@H]2O)C[C@@H]2O[C@](O)(C[C@@H](O)C[C@@H](O)[C@H](O)CC[C@@H](O)C[C@@H](O)CC(=O)O[C@H]1C)C[C@H](O)[C@H]2C(=O)O` [Amphotericin B], the “inhibition of curli assembly” value at curli is “inhibition of curli assembly”.
On the same count and under the same terms, the value for `COc1ccc(Nc2cc3c(cc2Nc2ccc(OC)cc2)C(=O)NC3=O)cc1` [DAPH-12] was “inhibition of curli assembly”.
As to GTQKTAIVVQRQSQMAIRVT [SEQ ID NO: 2], the “nucleation of assembly of soluble, fluorescently labeled CsgA by arrayed peptides” value on CsgA is “nucleate assembly of CsgA”.
On the same count and under the same terms, as for LRQGGSKLLAVVAQEGSSNRAK [SEQ ID NO: 1], the entry is “nucleate assembly of CsgA”.

These data come from US20120190566A1, “COMPOSITIONS AND METHODS FOR INHIBITING BIOFILMS” (priority 2009, published 2012).
